# Source: paper PMC7216583 (Parasites & Vectors, 2020)
# Where a name gives a salt, the structure may show the parent alone.
# Tested on: Toxoplasma gondii RH-2F tachyzoites
# Assay: microbe, parasite or virus in culture
# Settings: 72 h, read-out: Parasite inhibition (%) mean
row,Compound,inhibition of growth at 5 µM
1,CNCC(O)c1ccc(O)c(O)c1 (racemic) [DL-Adrenaline],1.5%
2,Nc1ncnc2nc[nH]c12 [Adenine sulfate],11.8%

# Same assay, conditions: 72 h, read-out: Parasite inhibition (%) mean, preliminary screen of compound library, mean
row,Compound,inhibition of growth at 5 µM
1,CC=CC1=C(C(=O)O)N2C(=O)[C@@H](NC(=O)[C@H](N)c3ccc(O)cc3)[C@H]2SC1 (mixture of isomers) [Cefprozil hydrate (Cefzil)],12.3%
2,NCC(=O)CCC(=O)O [5-Aminolevulinic acid hydrochloride],20.1%
3,NC(Cc1c[nH]c2ccc(O)cc12)C(=O)O (centres unmarked) [5-hydroxytryptophan (5-HTP)],0%
4,NC[C@H](CC(=O)O)c1ccc(Cl)cc1 [(R)-baclofen],23.1%
5,Cc1nc(NC(=O)N2CCC[C@H]2C(N)=O)sc1-c1csc(C(C)(C)C)n1 [A66],0.9%
6,C[C@@H](NCCCc1cccc(C(F)(F)F)c1)c1cccc2ccccc12 [AMG-073 HCl (Cinacalcet hydrochloride)],2.4%
7,CNC(=O)c1ccc(N2C(=S)N(c3cnc(C#N)c(C(F)(F)F)c3)C(=O)C23CCC3)cc1F [ARN-509],28.7%
8,O=C1NC(=O)/C(=C/c2ccc3c(c2)OC(F)(F)O3)S1 [AS-604850],0.8%
9,Nc1ncnc2c1ncn2[C@@H]1O[C@@H](COP(=O)(O)OP(=O)(O)OP(=O)(O)O)[C@@H](O)[C@H]1O [ATP (Adenosine-Triphosphate)],-56.8%
10,CNC(=O)c1cccc(-c2ccc3c(N4CCOC[C@@H]4C)nc(N4CCOC[C@@H]4C)nc3n2)c1 [AZD2014],45.5%
11,Nc1nc2c(ncn2COCCO)c(=O)[nH]1 [Acyclovir (Aciclovir)],-55.5%
12,CNCC(=O)c1ccc(O)c(O)c1 [Adrenalone HCl],17.8%
13,C=CCc1cc(OC)c(O)c(C(=O)NCCO)c1 [Alibendol],0.1%
14,Cn1c(=O)cc(N2CCC[C@@H](N)C2)n(Cc2ccccc2C#N)c1=O [Alogliptin (SYR-322)],44.1%
15,CC1(C)[C@@H](O[C@H]2O[C@H](C(=O)O)[C@@H](O)[C@H](O)[C@@H]2O[C@@H]2O[C@H](C(=O)O)[C@@H](O)[C@H](O)[C@H]2O)CC[C@@]2(C)[C@H]3C(=O)C=C4[C@@H]5C[C@@](C)(C(=O)O)CC[C@]5(C)CC[C@@]4(C)[C@]3(C)CC[C@@H]12 [Ammonium Glycyrrhizinate (AMGZ)],0.1%
16,CC1(C)S[C@@H]2[C@H](NC(=O)[C@H](N)c3ccc(O)cc3)C(=O)N2[C@@H]1C(=O)O [Amoxicillin sodium (Amox)],9.1%
17,CCOC(=O)c1c(CSc2ccccc2)n(C)c2cc(Br)c(O)c(CN(C)C)c12 [Arbidol HCl],2.8%
18,COC(=O)C1=CCCN(C)C1 [Arecoline],-9.5%
19,COc1cc(OC)c(OC)cc1C=O [Asaraldehyde (Asaronaldehyde)],10.2%
20,CC(C)(O)[C@H]1CC[C@@](C)([C@@H]2[C@@H](O)C[C@@]3(C)[C@@H]4C[C@H](O[C@@H]5O[C@H](CO)[C@@H](O)[C@H](O)[C@@H]5O)[C@H]5C(C)(C)[C@@H](O[C@@H]6OC[C@@H](O)[C@H](O)[C@H]6O)CC[C@@]56C[C@]46CC[C@]23C)O1 [Astragaloside A],15.5%
21,CC1=C(C(=O)OC(C)C)C(c2cccc([N+](=O)[O-])c2)C(C(=O)OC2CN(C(c3ccccc3)c3ccccc3)C2)=C(N)N1 (centres unmarked) [Azelnidipine],15.7%
22,CCOc1nc2cccc(C(=O)OCc3oc(=O)oc3C)c2n1Cc1ccc(-c2ccccc2-c2nc(=O)o[nH]2)cc1 [Azilsartan Medoxomil (TAK-491)],35.5%
23,COc1c(OCCCN2CCOCC2)ccc2c1N=C(NC(=O)c1cnc(N)nc1)N1CCN=C21 [BAY80-6946],40.8%
24,"Cn1c(CNc2ccc(C(=N)N)cc2)nc2cc(C(=O)N(CCC(=O)O)c3ccccn3)ccc21 [BIBR 953 (Dabigatran etexilate, Pradaxa)]",0.3%
25,CCCCCCOC(=O)/N=C(/N)c1ccc(NCc2nc3cc(C(=O)N(CCC(=O)OCC)c4ccccn4)ccc3n2C)cc1 [BIBR-1048 (Dabigatran)],8.4%
26,COc1cc2nc(N3CCCN(C)CC3)nc(NC3CCN(Cc4ccccc4)CC3)c2cc1OC [BIX01294],21.8%
27,Cc1nc(NC(=O)N2CCC[C@H]2C(N)=O)sc1-c1ccnc(C(C)(C)C(F)(F)F)c1 [BYL719],47.5%

# Same assay, conditions: 72 h, read-out: Parasite inhibition (%) mean, preliminary screen, mean
row,Compound,inhibition of growth at 5 µM
1,CCCCCCOC(=O)/N=C(/N)c1ccc(NCc2nc3cc(C(=O)N(CCC(=O)OCC)c4ccccn4)ccc3n2C)cc1,1.2%
2,CC1COC2(CCN(c3nc(=O)c4cc(C(F)(F)F)cc([N+](=O)[O-])c4s3)CC2)O1 (racemic) [BTZ043 racemate],-5.8%
3,Nc1ncnc2c1c(-c1cccc(OCc3ccccc3)c1)cn2C1CC(CN2CCCC2)C1 (stereo in doubt) [NVP-ADW742],48.9%
4,COc1ccc(S(=O)(=O)Nc2cccnc2Nc2ccc(O)cc2)cc1 [ABT-751],22.7%
5,C[C@]1(c2nc3c(C(N)=O)cccc3[nH]2)CCCN1 [ABT-888 (Veliparib)],50.5%
6,C[C@@H](NCCCc1cccc(C(F)(F)F)c1)c1cccc2ccccc12 [AMG-073 HCl (Cinacalcet HCl)],-0.4%
7,O=C(NC[C@H](O)CO)c1ccncc1Nc1ccc(I)cc1F [AS703026 (pimasertib)],-20.8%
8,"CC(C)(C)C(=O)OCOP(=O)(COCCn1cnc2c(N)ncnc21)OCOC(=O)C(C)(C)C [Adefovir Dipivoxil (Preveon, Hepsera)]",0%
9,Nc1ncnc2[nH]cnc12 [Adenine HCl],22.6%
10,CN(C)C/C=C/C(=O)Nc1cc2c(Nc3ccc(F)c(Cl)c3)ncnc2cc1O[C@H]1CCOC1 [Afatinib (BIBW2992)],42.8%
11,COc1ccc2cccc(CCNC(C)=O)c2c1 [Agomelatine],64.2%
12,O=c1[nH]cnc2[nH]ncc12 [Allopurinol Sodium (Aloprim)],-0.7%
13,CN(C)CCc1c[nH]c2ccc(CS(=O)(=O)N3CCCC3)cc12 [Almotriptan malate (Axert)],2%
14,CN(C)CCN1C(=O)c2cccc3cc(N)cc(c23)C1=O [Amonafide],-3.3%
15,CC(=O)Nc1ccc(OC[C@](C)(O)C(=O)Nc2ccc([N+](=O)[O-])c(C(F)(F)F)c2)cc1 [Andarine (GTX-007)],-18.7%
16,COc1ccc(-n2nc(C(N)=O)c3c2C(=O)N(c2ccc(N4CCCCC4=O)cc2)CC3)cc1 [Apixaban],2%
17,CC(C)c1cc(C(C)C)c(CC(=O)NS(=O)(=O)Oc2c(C(C)C)cccc2C(C)C)c(C(C)C)c1 [Avasimibe (CI-1011)],5.1%
18,Cn1c(=O)n(-c2ccc(C(C)(C)C#N)cc2)c2c3cc(-c4cnc5ccccc5c4)ccc3ncc21 [BEZ235 (NVP-BEZ235)],5.6%
19,CC[C@@H]1C(=O)N(C)c2cnc(Nc3ccc(C(=O)NC4CCN(C)CC4)cc3OC)nc2N1C1CCCC1 [BI 2536],0.7%
20,C/C(=C\C(=O)Nc1ccccc1C(=O)O)c1ccc2ccccc2c1 [BIBR 1532],0.4%
21,Cc1ccc(-n2nc(C(C)(C)C)cc2NC(=O)Nc2ccc(OCCN3CCOCC3)c3ccccc23)cc1 [BIRB 796 (Doramapimod)],8.9%
